pKi: −log10 of the molar value.

This test has as its target Urokinase-type plasminogen activator (Homo sapiens, UniProt P00749). Description: In vitro inhibitory activity against Urokinase-type plasminogen activator (microPa).
With `CSc1sc(C(=N)N)cc1-c1csc(Nc2cccc(OCC(N)=O)c2)n1`, the pKi (commonly the Ki on a negative log10 scale, so that one unit is a factor of ten) was 5.99.
`CSc1sc(C(=N)N)cc1-c1csc(Nc2cccc3ccccc23)n1` gave a pKi of 6.30.
`CSc1sc(C(=N)N)cc1-c1csc(NC(c2ccccc2)c2ccccc2)n1` showed a negative logarithm of the Ki (pKi) of 5.93.
`CSc1sc(C(=N)N)cc1-c1csc(Nc2ccc(OCc3ccccc3)cc2)n1` gave a negative logarithm of the Ki (pKi) of 6.74.
The result for `COc1ccc(Nc2nc(-c3cc(C(=N)N)sc3SC)cs2)cc1` reads 6.55; that for `CSc1sc(C(=N)N)cc1-c1csc(Nc2ccc(C)cc2Br)n1`, 6.37; that for `CSc1sc(C(=N)N)cc1-c1csc(Nc2ccc(S(=O)(=O)N3CCCCC3)cc2)n1`, 6.40.
In the case of `CSc1sc(C(=N)N)cc1-c1csc(NCCN2CCOCC2)n1`, the pKi is 5.85.
Molecule `COc1cccc(Nc2nc(-c3cc(C(=N)N)sc3SC)cs2)c1` had a pKi of 6.55.
`CSc1sc(C(=N)N)cc1-c1csc(N)n1` gave a pKi of 5.41.
In turn, `CSc1sc(C(=N)N)cc1-c1csc(Nc2ccc(Cc3ccccc3)cc2)n1` showed a pKi of 6.74.
With `CSc1sc(C(=N)N)cc1-c1csc(Nc2ccccc2C(C)C)n1`, the pKi was 6.15.
The molecule `COc1ccc(OC)c(Nc2nc(-c3cc(C(=N)N)sc3SC)cs2)c1` showed a negative-log Ki (pKi) of 6.18.
The result for `CSc1sc(C(=N)N)cc1-c1csc(Nc2ccccc2Br)n1` reads 6.55; that for `CSc1sc(C(=N)N)cc1-c1csc(Nc2ccc(N(C)C)cc2)n1`, 6.51; that for `CSc1sc(C(=N)N)cc1-c1csc(NCc2ccc(C)cc2)n1`, 6.19.
For `CSc1sc(C(=N)N)cc1-c1csc(NCCN2CCCCC2)n1`, the negative logarithm of the Ki (pKi) is 5.80.
With `CSc1sc(C(=N)N)cc1-c1csc(Nc2ccc(Oc3ccccc3)cc2)n1`, the pKi is 7.22.
As to `CSc1sc(C(=N)N)cc1-c1csc(Nc2ccc(Nc3ccccc3)cc2)n1`, the pKi is 7.15.
On to `N=C(N)c1ccc(CS)s1`, for which the negative-log Ki (pKi) was 5.22.
With `CSc1sc(C(=N)N)cc1-c1csc(Nc2ccc(Oc3ccc(Cl)cc3)cc2)n1`, the pKi is 6.96.
On to `CSc1sc(C(=N)N)cc1-c1csc(Nc2ccc(Oc3ccc(C(F)(F)F)cn3)cc2)n1`, for which the pKi was 6.04.
Take `Cc1sc(C(=N)N)cc1-c1csc(Nc2ccc(Oc3ccccc3)cc2)n1`: the pKi is 7.10.
`COc1cc(Nc2nc(-c3cc(C(=N)N)sc3SC)cs2)cc(OC)c1OC` had a pKi of 6.80.
As for `CSc1sc(C(=N)N)cc1-c1csc(Nc2cccc(Cl)c2C)n1`, the negative logarithm of the Ki (pKi) was 6.36.
`CSc1sc(C(=N)N)cc1-c1csc(Nc2ccccc2Cl)n1` gave a pKi of 5.84.
The result for `CSc1sc(C(=N)N)cc1-c1csc(Nc2c(Cl)cccc2Cl)n1` reads 5.82.
In turn, `CSc1sc(C(=N)N)cc1-c1csc(Nc2cccc(C)c2C)n1` showed a negative logarithm of the Ki (pKi) of 6.55.
`CSc1sc(C(=N)N)cc1-c1csc(Nc2ccc(/N=N/c3ccccc3)cc2)n1` gave a negative-log Ki (pKi) of 6.74.
As to `CSc1sc(C(=N)N)cc1-c1csc(NCCCc2ccccc2)n1`, the pKi is 6.46.
Take `CSc1sc(C(=N)N)cc1-c1csc(N2CCN(c3ccccc3F)CC2)n1`: the negative-log Ki (pKi) is 5.51.
`CSc1sc(C(=N)N)cc1-c1csc(Nc2ccc3c(c2)OCO3)n1` showed a pKi of 6.28.
Take `Cc1sc(C(=N)N)cc1-c1csc(N)n1`: the pKi is 5.79.
In turn, `CSc1sc(C(=N)N)cc1-c1csc(Nc2ccc(Cl)cc2C)n1` gave a negative-log Ki (pKi) of 6.55.

The record behind these values is ChEMBL document CHEMBL1134012, “Synthesis of thiophene-2-carboxamidines containing 2-aminothiazoles and their biological evaluation as urokinase inhibitors” (Bioorg Med Chem Lett, 2001).
